From patent US9809623B2, “α4β7 peptide monomer and dimer antagonists” (Protagonist Therapeutics, Inc., priority 2014, dated 2017)
Numbered stars: 1 amine (or outer) side, 2 acyl side, 3 side chain; on linkers, the order of the positions; unused ones are H or OH. Bridge positions count the residues as written; N and C are the ends. Square brackets hold non-standard residues; d marks the D form. Peptide text beside a SMILES is read from it. I, II: the chains in the order shown. * marks the point of attachment. Phe(4-tBu) = CC(C)(C)c1ccc(C[C@H](N)C(=O)O)cc1; Phe(4-CN) = N#Cc1ccc(C[C@H](N)C(=O)O)cc1; 1Nal = N[C@@H](Cc1cccc2ccccc12)C(=O)O; 2Nal = N[C@@H](Cc1ccc2ccccc2c1)C(=O)O; d1Nal = N[C@H](Cc1cccc2ccccc12)C(=O)O; Diglycolyl = O=C(COCC(=O)[*:2])[*:1]; NMeR = CN[C@@H](CCCNC(=N)N)C(=O)O; β3hE = N[C@@H](CCC(=O)O)CC(=O)O; Pen = CC(C)(S)[C@H](N)C(=O)O; Isovaleryl = CC(C)CC(=O)*; Dab = NCC[C@H](N)C(=O)O

What follows are compounds tested against α4β7 (Homo sapiens, UniProt P13612+P26010) (assay: α4β7-MAdCAM Cell Adhesion Assay (RPMI 8866 human cells)). Details: Table 3-B, Potency (α4β7); range classes; read-out: α4β7 cell (Hu) IC50.
Format: cell-based
Design: host or cells: RPMI 8866 human B lymphoblastoid cells
Method: RPMI 8866 human cells (Sigma #95041316) were cultured in RPMI 1640 HEPES medium (Invitrogen #22400-089) supplemented with 10% serum (Fetal Bovine Serum, Invitrogen #16140-071), 1 mM sodium pyruvate (Invitrogen #11360-070), 2 mM L-glutamine (Invitrogen #25030-081) and Penicillin-Streptomycin (Invitrogen #15140-122) at 100 units of penicillin and 100 μg of streptomycin per ml. The cells were washed two times in DMEM medium (ATCC #30-2002) supplemented with 0.1% BSA, 10 mM HEPES pH 7 and 1 mM MnCl2. The cells were re-suspended in supplemented DMEM medium at a density of 4×10^6 cells/ml.
A Nunc MaxiSorp plate was coated with rh MAdCAM-1/Fc Chimera (R&D #6065-MC) at 200 ng per well in 50 ul per well in 1×PBS and incubated at 4° C. overnight. The solution was then removed by shaking, blocked with 250 ul per well PBS containing 1% BSA, and incubated at 37° C. for 1 hr. The solution was removed by shaking. Peptides were diluted by serial dilution in a final volume of 50 ul per well (2× concentration). To each well, 50 ul of cells (200,000 cells) were added and the plate was incubated at 37° C., 5% CO2 for 30-45 min to allow cell adhesion. The wells were washed manually three times (100 ul per wash) with supplemented DMEM. After the final wash, 100 ul/well of supplemented DMEM and 10 ul/well of MTT reagent (ATTC cat#30-1010K) were added. The plate was incubated at 37° C., 5% CO2 for 2-3 hrs until a purple precipitate was visible. 100 ul of Detergent Reagent (ATTC cat#30-1010K) was added to each well. The plate was covered from the light, wrapped in Parafilm to prevent evaporation, and left overnight at room temperature in the dark. The plate was shaken for 5 min and the absorbance at 570 nm was measured. To calculate the dose response, the absorbance value of control wells not containing cells was subtracted from each test well.

Sequence of α4β7 (P13612 34-1032): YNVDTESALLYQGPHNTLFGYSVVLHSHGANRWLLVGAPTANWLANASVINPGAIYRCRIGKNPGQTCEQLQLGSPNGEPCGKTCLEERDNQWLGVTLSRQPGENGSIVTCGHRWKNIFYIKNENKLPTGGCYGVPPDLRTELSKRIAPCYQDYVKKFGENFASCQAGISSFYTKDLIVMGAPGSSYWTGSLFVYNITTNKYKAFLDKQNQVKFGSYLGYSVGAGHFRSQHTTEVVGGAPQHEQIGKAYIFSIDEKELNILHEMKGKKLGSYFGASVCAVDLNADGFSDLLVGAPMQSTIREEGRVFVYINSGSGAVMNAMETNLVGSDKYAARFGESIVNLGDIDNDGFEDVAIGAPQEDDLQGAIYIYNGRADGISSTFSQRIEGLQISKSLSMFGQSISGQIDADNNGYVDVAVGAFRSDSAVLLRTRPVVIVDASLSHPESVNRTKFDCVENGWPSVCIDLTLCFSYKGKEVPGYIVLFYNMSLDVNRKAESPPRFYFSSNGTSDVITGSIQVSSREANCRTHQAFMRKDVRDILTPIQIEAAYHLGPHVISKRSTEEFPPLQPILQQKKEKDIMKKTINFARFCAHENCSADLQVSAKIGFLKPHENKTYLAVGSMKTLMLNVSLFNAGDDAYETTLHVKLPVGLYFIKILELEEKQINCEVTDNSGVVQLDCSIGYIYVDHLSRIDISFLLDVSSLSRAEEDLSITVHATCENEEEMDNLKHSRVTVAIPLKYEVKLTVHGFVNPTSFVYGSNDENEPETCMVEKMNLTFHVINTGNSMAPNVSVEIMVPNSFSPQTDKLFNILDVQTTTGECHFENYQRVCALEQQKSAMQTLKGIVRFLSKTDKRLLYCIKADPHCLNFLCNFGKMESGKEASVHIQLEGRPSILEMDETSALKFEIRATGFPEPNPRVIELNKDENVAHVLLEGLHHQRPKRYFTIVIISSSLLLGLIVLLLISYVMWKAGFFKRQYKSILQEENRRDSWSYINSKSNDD
Sequence of α4β7 (P26010 20-798): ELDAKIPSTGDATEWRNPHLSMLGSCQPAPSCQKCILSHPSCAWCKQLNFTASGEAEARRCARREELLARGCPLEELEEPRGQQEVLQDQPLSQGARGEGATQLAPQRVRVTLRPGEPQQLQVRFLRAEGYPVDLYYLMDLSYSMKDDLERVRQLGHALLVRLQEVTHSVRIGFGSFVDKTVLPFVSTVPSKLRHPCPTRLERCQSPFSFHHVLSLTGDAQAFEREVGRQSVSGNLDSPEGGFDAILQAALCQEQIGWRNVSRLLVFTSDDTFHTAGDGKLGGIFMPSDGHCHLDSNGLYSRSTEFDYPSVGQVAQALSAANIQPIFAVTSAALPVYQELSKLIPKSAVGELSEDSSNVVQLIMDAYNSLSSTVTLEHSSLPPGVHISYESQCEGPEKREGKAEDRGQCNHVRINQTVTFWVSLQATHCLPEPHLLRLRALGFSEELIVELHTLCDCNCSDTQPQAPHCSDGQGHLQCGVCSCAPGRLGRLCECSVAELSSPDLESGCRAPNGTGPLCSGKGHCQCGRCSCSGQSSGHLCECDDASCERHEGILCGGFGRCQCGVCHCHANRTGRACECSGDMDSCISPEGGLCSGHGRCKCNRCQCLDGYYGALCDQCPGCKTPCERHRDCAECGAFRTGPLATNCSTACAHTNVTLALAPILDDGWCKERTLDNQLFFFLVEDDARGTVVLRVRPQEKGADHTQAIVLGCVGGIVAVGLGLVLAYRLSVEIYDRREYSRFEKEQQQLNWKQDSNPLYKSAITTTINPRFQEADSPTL

How did the IC50 turn out when CC(=O)N[C@@H]1C(=O)N(C)[C@@H](CCCNC(=N)N)C(=O)N[C@@H](CO)C(=O)N[C@@H](CC(=O)O)C(=O)N[C@@H]([C@@H](C)O)C(=O)N[C@@H](CC(C)C)C(=O)N[C@H](C(=O)N[C@@H](Cc2c[nH]c3ccccc23)C(=O)N[C@H](CCCCNC(=O)COCC(=O)NCCCC[C@@H](NC(=O)[C@H](Cc2c[nH]c3ccccc23)NC(=O)[C@H]2NC(=O)[C@H](CC(C)C)NC(=O)[C@H]([C@@H](C)O)NC(=O)[C@H](CC(=O)O)NC(=O)[C@H](CO)NC(=O)[C@H](CCCNC(=N)N)N(C)C(=O)[C@@H](NC(C)=O)C(C)(C)SSC2(C)C)C(=O)O)C(=O)O)C(C)(C)SSC1(C)C [compound 76] (I: Ac-[Pen][NMeR]SDTL[Pen]W[dK]-OH / II: Ac-[Pen][NMeR]SDTL[Pen]W[dK]-OH; disulfide I:1-I:7, II:1-II:7; linker I:9-II:9 via Diglycolyl) was run?
Its IC50 is 10 to 25 nM.

How did the IC50 turn out when CC(=O)N[C@@H]1C(=O)N(C)[C@@H](CCCNC(=N)N)C(=O)N[C@@H](CO)C(=O)N[C@@H](CC(=O)O)C(=O)N[C@@H]([C@@H](C)O)C(=O)N[C@@H](Cc2ccccc2)C(=O)N[C@H](C(=O)N[C@@H](Cc2ccc3ccccc3c2)C(=O)N[C@H](CCC(=O)O)C(N)=O)C(C)(C)SSC1(C)C [compound 162] (Ac-[Pen][NMeR]SDTF[Pen][2Nal][dE]-NH2; disulfide 1-7) was run?
The IC50 was 1000 to 10000 nM.

With CC(=O)N[C@@H]1C(=O)N(C)[C@@H](CCCNC(=N)N)C(=O)N[C@@H](CO)C(=O)N[C@@H](CC(=O)O)C(=O)N[C@@H]([C@@H](C)O)C(=O)N[C@@H](CC(C)C)C(=O)N[C@H](C(=O)N[C@@H](Cc2ccc3ccccc3c2)C(=O)N[C@H](Cc2c[nH]cn2)C(=O)N[C@H](CCCCNC(=O)COCC(=O)NCCCC[C@@H](NC(=O)[C@@H](Cc2c[nH]cn2)NC(=O)[C@H](Cc2ccc3ccccc3c2)NC(=O)[C@H]2NC(=O)[C@H](CC(C)C)NC(=O)[C@H]([C@@H](C)O)NC(=O)[C@H](CC(=O)O)NC(=O)[C@H](CO)NC(=O)[C@H](CCCNC(=N)N)N(C)C(=O)[C@@H](NC(C)=O)C(C)(C)SSC2(C)C)C(N)=O)C(N)=O)C(C)(C)SSC1(C)C [compound 118] (I: Ac-[Pen][NMeR]SDTL[Pen][2Nal][dH][dK]-NH2 / II: Ac-[Pen][NMeR]SDTL[Pen][2Nal][dH][dK]-NH2; disulfide I:1-I:7, II:1-II:7; linker I:10-II:10 via Diglycolyl) as the compound, how does the IC50 read?
Its IC50 is 25 to 50 nM.

How did the IC50 turn out when CC(C)CC(=O)N[C@@H]1C(=O)N(C)[C@@H](CCCNC(=N)N)C(=O)N[C@@H](CO)C(=O)N[C@@H](CC(=O)O)C(=O)N[C@@H]([C@@H](C)O)C(=O)N[C@@H](CC(C)C)C(=O)N[C@H](C(=O)N[C@@H](Cc2ccc(C(C)(C)C)cc2)C(=O)N[C@@H](CCC(=O)O)CC(=O)N[C@H](CCCCN)C(N)=O)C(C)(C)SSC1(C)C [compound 177] (Isovaleryl-[Pen][NMeR]SDTL[Pen][Phe(4-tBu)][β3hE][dK]-NH2; disulfide 1-7) was run?
The IC50 was 50 to 100 nM.

CC[C@H](C)[C@@H]1NC(=O)[C@H](CC(=O)O)NC(=O)[C@H](CO)NC(=O)[C@H](CCCNC(=N)N)N(C)C(=O)[C@@H](NC(C)=O)C(C)(C)SSC(C)(C)[C@@H](C(=O)N[C@@H](Cc2ccc3ccccc3c2)C(=O)N[C@H](CCC(=O)O)C(N)=O)NC(=O)[C@H](CC(C)C)NC1=O [compound 160] (Ac-[Pen][NMeR]SDIL[Pen][2Nal][dE]-NH2; disulfide 1-7) was tested. Which IC50 did it give?
The IC50 was 1000 to 10000 nM.

For CC(=O)N[C@@H]1C(=O)N(C)[C@@H](CCCNC(=N)N)C(=O)N[C@@H](CO)C(=O)N[C@@H](CC(=O)O)C(=O)N[C@@H](Cc2ccccc2)C(=O)N[C@@H](CC(C)C)C(=O)N[C@H](C(=O)N[C@@H](Cc2ccc3ccccc3c2)C(=O)N[C@H](CCC(=O)O)C(N)=O)C(C)(C)SSC1(C)C [compound 157] (Ac-[Pen][NMeR]SDFL[Pen][2Nal][dE]-NH2; disulfide 1-7), which IC50 is on record?
Its IC50 is 1000 to 10000 nM.

For CC(=O)N[C@@H]1C(=O)N(C)[C@@H](CCCNC(=N)N)C(=O)N[C@@H](CO)C(=O)N[C@@H](CC(=O)O)C(=O)N[C@@H]([C@@H](C)O)C(=O)N[C@@H](CC(C)C)C(=O)N[C@H](C(=O)N[C@@H](Cc2c[nH]c3ccccc23)C(=O)N[C@@H](CCC(=O)O)C(=O)N[C@@H](CCNC(=O)COCC(=O)NCC[C@H](NC(=O)[C@H](CCC(=O)O)NC(=O)[C@H](Cc2c[nH]c3ccccc23)NC(=O)[C@H]2NC(=O)[C@H](CC(C)C)NC(=O)[C@H]([C@@H](C)O)NC(=O)[C@H](CC(=O)O)NC(=O)[C@H](CO)NC(=O)[C@H](CCCNC(=N)N)N(C)C(=O)[C@@H](NC(C)=O)C(C)(C)SSC2(C)C)C(N)=O)C(N)=O)C(C)(C)SSC1(C)C [compound 97] (I: Ac-[Pen][NMeR]SDTL[Pen]WE[Dab]-NH2 / II: Ac-[Pen][NMeR]SDTL[Pen]WE[Dab]-NH2; disulfide I:1-I:7, II:1-II:7; linker I:10-II:10 via Diglycolyl), which IC50 is on record?
Its IC50 is < 10 nM.

With CC(=O)N[C@@H]1C(=O)N(C)[C@@H](CCCNC(=N)N)C(=O)N[C@@H](CO)C(=O)N[C@@H](CC(=O)O)C(=O)N[C@@H]([C@@H](C)O)C(=O)N[C@@H](CC(C)C)C(=O)N[C@H](C(=O)N[C@@H](Cc2ccc(C#N)cc2)C(=O)N[C@@H](CCC(=O)O)CC(=O)N[C@H](CCCCNC(=O)COCC(=O)NCCCC[C@@H](NC(=O)C[C@H](CCC(=O)O)NC(=O)[C@H](Cc2ccc(C#N)cc2)NC(=O)[C@H]2NC(=O)[C@H](CC(C)C)NC(=O)[C@H]([C@@H](C)O)NC(=O)[C@H](CC(=O)O)NC(=O)[C@H](CO)NC(=O)[C@H](CCCNC(=N)N)N(C)C(=O)[C@@H](NC(C)=O)C(C)(C)SSC2(C)C)C(N)=O)C(N)=O)C(C)(C)SSC1(C)C [compound 139] (I: Ac-[Pen][NMeR]SDTL[Pen][Phe(4-CN)][β3hE][dK]-NH2 / II: Ac-[Pen][NMeR]SDTL[Pen][Phe(4-CN)][β3hE][dK]-NH2; disulfide I:1-I:7, II:1-II:7; linker I:10-II:10 via Diglycolyl) as the compound, how does the IC50 read?
The IC50 was < 10 nM.

With CC(=O)N[C@@H]1C(=O)N(C)[C@@H](CCCNC(=N)N)C(=O)N[C@@H](CO)C(=O)N[C@@H](CC(=O)O)C(=O)N[C@@H]([C@@H](C)O)C(=O)N[C@@H](CC(C)C)C(=O)N[C@H](C(=O)N[C@H](Cc2cccc3ccccc23)C(=O)N[C@@H](CCC(=O)O)C(=O)N[C@H](CCCCNC(=O)COCC(=O)NCCCC[C@@H](NC(=O)[C@H](CCC(=O)O)NC(=O)[C@@H](Cc2cccc3ccccc23)NC(=O)[C@H]2NC(=O)[C@H](CC(C)C)NC(=O)[C@H]([C@@H](C)O)NC(=O)[C@H](CC(=O)O)NC(=O)[C@H](CO)NC(=O)[C@H](CCCNC(=N)N)N(C)C(=O)[C@@H](NC(C)=O)C(C)(C)SSC2(C)C)C(N)=O)C(N)=O)C(C)(C)SSC1(C)C [compound 34] (I: Ac-[Pen][NMeR]SDTL[Pen][d1Nal]E[dK]-NH2 / II: Ac-[Pen][NMeR]SDTL[Pen][d1Nal]E[dK]-NH2; disulfide I:1-I:7, II:1-II:7; linker I:10-II:10 via Diglycolyl) as the compound, how does the IC50 read?
Its IC50 is 25 to 50 nM.

With CC(=O)N[C@@H]1C(=O)N(C)[C@@H](CCCNC(=N)N)C(=O)N[C@@H](CO)C(=O)N[C@@H](CC(=O)O)C(=O)N[C@@H]([C@@H](C)O)C(=O)N[C@@H](CC(C)C)C(=O)N[C@H](C(=O)N[C@@H](Cc2c[nH]c3ccccc23)C(=O)N[C@@H](CC(=O)O)C(=O)N[C@H](CCCCNC(=O)COCC(=O)NCCCC[C@@H](NC(=O)[C@H](CC(=O)O)NC(=O)[C@H](Cc2c[nH]c3ccccc23)NC(=O)[C@H]2NC(=O)[C@H](CC(C)C)NC(=O)[C@H]([C@@H](C)O)NC(=O)[C@H](CC(=O)O)NC(=O)[C@H](CO)NC(=O)[C@H](CCCNC(=N)N)N(C)C(=O)[C@@H](NC(C)=O)C(C)(C)SSC2(C)C)C(N)=O)C(N)=O)C(C)(C)SSC1(C)C [compound 87] (I: Ac-[Pen][NMeR]SDTL[Pen]WD[dK]-NH2 / II: Ac-[Pen][NMeR]SDTL[Pen]WD[dK]-NH2; disulfide I:1-I:7, II:1-II:7; linker I:10-II:10 via Diglycolyl) as the compound, how does the IC50 read?
Its IC50 is 25 to 50 nM.

For CC(=O)N[C@@H]1C(=O)N(C)[C@@H](CCCNC(=N)N)C(=O)N[C@@H](CO)C(=O)N[C@@H](CC(=O)O)C(=O)N[C@@H]([C@@H](C)O)C(=O)N[C@@H](CC(C)C)C(=O)N[C@H](C(=O)N[C@@H](Cc2cccc3ccccc23)C(=O)N[C@@H](C(=O)N[C@H](CCCCNC(=O)COCC(=O)NCCCC[C@@H](NC(=O)[C@H](NC(=O)[C@H](Cc2cccc3ccccc23)NC(=O)[C@H]2NC(=O)[C@H](CC(C)C)NC(=O)[C@H]([C@@H](C)O)NC(=O)[C@H](CC(=O)O)NC(=O)[C@H](CO)NC(=O)[C@H](CCCNC(=N)N)N(C)C(=O)[C@@H](NC(C)=O)C(C)(C)SSC2(C)C)[C@H](C)O)C(N)=O)C(N)=O)[C@H](C)O)C(C)(C)SSC1(C)C [compound 116] (I: Ac-[Pen][NMeR]SDTL[Pen][1Nal][dT][dK]-NH2 / II: Ac-[Pen][NMeR]SDTL[Pen][1Nal][dT][dK]-NH2; disulfide I:1-I:7, II:1-II:7; linker I:10-II:10 via Diglycolyl), which IC50 is on record?
The IC50 was 50 to 100 nM.
